Tests used:
Type in all cases: cell-based
human granulocytes [1] = assay: Chemotaxis and chemokinesis of granulocytes
Description: Assays were performed using 96-well ChemoTx system microplates with a 3-μm pore size polycarbonate filter (NeuroProbe Inc., Gaithersburg, USA). Cells (granulocytes or murine microglia) were resuspended at 10^7/ml in HBSS, PBS and 5% albumin, 39:16:1 (chemotaxis buffer, CB). In order to evaluate the chemoattractant effect of ABA, hormone concentrations ranging from 50 nM to 20 μM were added in CB in the bottom wells and 25 μl cell suspensions were placed on top of the filter. To evaluate a possible stimulatory effect of ABA on spontaneous cell movements (chemokinesis), cells were pre-incubated with or without 20 μM ABA, then washed and placed on top of the filter, in contact with CB. Plates were incubated at 37° C. for 60 min and transmigrated cells were recovered and quantified by fluorimetric assay with Cytox Green. The number of transmigrated cells was calculated by comparison of the measured fluorescence with that of a standard curve, obtained by directly placing a serial dilution of cells in the bottom wells. The results of the chemotaxis experiments are expressed as “chemotaxis index” (CI): CI=number of cells migrated towards chemoattractant/number of cells migrated towards CB

human granulocytes [2] = assay: Intracellular calcium [Ca2+]i in granulocytes
Description: Granlocytes were isolated by density gradient centrifugation from the peripheral blood of healthy donors, after informed consent. Contaminating erythrocytes were removed by hypotonic lysis. […] The increase of [cADPR]i in turn induces a progressive rise of [Ca^2+]i, from a basal value of 50±2 nM to 170±25 nM after 10 min from the addition of 10 μM ABA (n=4). […] The increase of the [Ca^2+]i induced by ABA in granulocytes is in turn responsible for activation of several functional activities typical of these cells. The functional effects induced by ABA (at concentrations ranging between 0.2 and 20 μM) in granulocytes include stimulation of the production of reactive oxygen species (ROS), measured through the cytochrome c […] (FIG. 2A), and of nitric oxide (NO), measured as accumulation of nitrite, the end-product of NO […] (FIG. 2B).

human granulocytes [3] = assay: NO release by granulocytes (nitrite, Griess)
Description: Granulocytes were resuspended at 5×10^6/ml in HBSS and 225 μl of the cell suspension were added to 50 μl of 0.2 mM cytochrome c and were incubated for 30 min at 37° C. in the absence (control) or in the presence of 250 nM or 20 μM ABA, the latter concentration without or with 1 mM EDTA, 20 mM nicotinamide or 0.1 mM 8-Br-cADPR. […] The results are expressed as the production relative to control cells, not stimulated with ABA, and are the mean ±SD from 5 experiments.
The method used to determine NO released from the cells into the medium exploits the spontaneous conversion of NO to nitrates and the subsequent enzymatic reduction of nitrates to nitrites by the enzyme nitrate reductase. […] Granulocytes (60×10^6/well) or murine microglia cells N9 (2×10^5/well) were incubated in 24-well plates for 60 min at 37° C. in the presence of ABA at different concentrations. The supernatants were then centrifuged and diluted with an equal volume of Griess reagent (0.1% naphthyl-ethylenediamine dihydrochloride in distilled water, 1% sulphanylamide in 5% concentrated H3PO4). Absorbance at 545 nm was estimated after 10 min and the nitrite concentration was calculated using a standard curve, generated in parallel with known amounts of NaNO2.

human granulocytes [4] = assay: ROS production by granulocytes (cytochrome c assay)
Description: Granulocytes were resuspended at 5×10^6/ml in HBSS and 225 μl of the cell suspension were added to 50 μl of 0.2 mM cytochrome c and were incubated for 30 min at 37° C. in the absence (control) or in the presence of 250 nM or 20 μM ABA, the latter concentration without or with 1 mM EDTA, 20 mM nicotinamide or 0.1 mM 8-Br-cADPR. The amount of ROS (panel A) or of NO (panel B) in the cell supernatant was measured as described in Materials and Methods. The results are expressed as the production relative to control cells, not stimulated with ABA, and are the mean ±SD from 5 experiments.
Release of superoxide (O2^−) by human granulocytes was quantified by a spectrophotometric assay of cytochrome c reduction (Cohen, J Clin Invest 1978). Granulocytes were resuspended in HBSS (at 5×10^6 cells/ml) and 225 μl of the cell suspension was incubated for 30 min at 37° C. with 50 μl cytochrome c (0.2 mM) in the absence (control) or in the presence of ABA at different concentrations. Then, cells were centrifuged at 5,000×g for 15 s and the absorbance of the supernatants was recorded at 550 nm (λmax for reduced cytocrome c).

`N=c1c2nc(Br)n3c2ncn1C1OC(COP(=O)(O)OP(=O)(O)OCC2OC3C(O)C2O)C(O)C1O` (stereo not shown) [8-Br-cADPR, reference compound] was tested, and the “effect on ABA-induced chemokinesis and chemotaxis” value (human granulocytes [1]) was “inhibited”, the “inhibition of the ABA-induced increase of [Ca2+]i” value (human granulocytes [2]) was “approx. 60%” and the “effect on ABA-induced NO production” value (human granulocytes [3]) was “inhibited”. The “effect on ABA-induced ROS production” value (human granulocytes [4]) was “inhibited”.
With `O=C(O)CN(CCOCCOCCN(CC(=O)O)CC(=O)O)CC(=O)O` [EGTA] the “effect on the ABA-induced increase of [Ca2+]i” value (human granulocytes [2]) was “almost completely prevents”.
In the case of `NC(=O)c1cccnc1` [nicotinamide, reference compound], the “effect on ABA-induced chemokinesis and chemotaxis” value (human granulocytes [1]) is reported as “inhibited”, the “effect on ABA-induced NO production” value (human granulocytes [3]) is reported as “inhibited” and the “effect on ABA-induced ROS production” value (human granulocytes [4]) is reported as “inhibited”.
In the case of `O=C(O)CN(CCN(CC(=O)O)CC(=O)O)CC(=O)O` [EDTA, reference compound], the “effect on ABA-induced NO production” value (human granulocytes [3]) is reported as “inhibited” and the “effect on ABA-induced ROS production” value (human granulocytes [4]) is reported as “inhibited”.
